Experimental data reported in the NIST ThermoML archive (doi:10.1016/j.fluid.2014.07.036).

Experiment: refractive index (other wavelength) (dimensionless); xn = mol fraction of the nth substance listed
Settings: 85 kPa, Liquid, Wavelength=632.8 nm, minimum deviation angle

CCCCCCCC[n+]1ccn(C)c1.F[B-](F)(F)F [1-methyl-3-octylimidazolium tetrafluoroborate] + CCCCCCO
Settings	refractive index
289.88 K, x1 = 0.004	1.4182
289.88 K, x1 = 0.354	1.4268
290.62 K, x1 = 0.007	1.418
290.62 K, x1 = 0.346	1.4264
291.35 K, x1 = 0.01	1.4178
291.35 K, x1 = 0.338	1.426
292.06 K, x1 = 0.009	1.4175
292.06 K, x1 = 0.325	1.4255
292.78 K, x1 = 0.011	1.4173
292.78 K, x1 = 0.317	1.4251
293.48 K, x1 = 0.014	1.4171
293.48 K, x1 = 0.31	1.4247
294.37 K, x1 = 1	1.4327
294.83 K, x1 = 0.018	1.4167
294.83 K, x1 = 0.289	1.4238
295.51 K, x1 = 0.02	1.4165
295.51 K, x1 = 0.282	1.4234
295.86 K, x1 = 1	1.4323
296.12 K, x1 = 0.021	1.4163
296.12 K, x1 = 0.269	1.4229
296.61 K, x1 = 0.024	1.4162
296.61 K, x1 = 0.263	1.4226
297.04 K, x1 = 0.026	1.4161
297.04 K, x1 = 0.252	1.4222
297.21 K, x1 = 1	1.4319
297.39 K, x1 = 0.027	1.416
297.39 K, x1 = 0.245	1.4219
297.66 K, x1 = 0.031	1.416
297.66 K, x1 = 0.24	1.4217
297.92 K, x1 = 0.034	1.416
297.92 K, x1 = 0.236	1.4215
298.17 K, x1 = 0.034	1.4159
298.17 K, x1 = 0.227	1.4212
298.38 K, x1 = 0.037	1.4159
298.38 K, x1 = 0.222	1.421
298.57 K, x1 = 0.042	1.416
298.57 K, x1 = 0.221	1.4209
298.73 K, x1 = 0.044	1.416
298.73 K, x1 = 0.219	1.4208
298.88 K, x1 = 0.046	1.416
298.88 K, x1 = 0.213	1.4206
298.93 K, x1 = 1	1.4313
299.01 K, x1 = 0.045	1.4159
299.01 K, x1 = 0.207	1.4204
299.12 K, x1 = 0.049	1.416
299.12 K, x1 = 0.208	1.4204
299.21 K, x1 = 0.05	1.416
299.21 K, x1 = 0.202	1.4202
299.37 K, x1 = 0.056	1.4161
299.37 K, x1 = 0.196	1.42
299.44 K, x1 = 0.057	1.4161
299.44 K, x1 = 0.193	1.4199
299.5 K, x1 = 0.061	1.4162
299.5 K, x1 = 0.194	1.4199
299.55 K, x1 = 0.061	1.4162
299.55 K, x1 = 0.191	1.4198
299.6 K, x1 = 0.062	1.4162
299.6 K, x1 = 0.188	1.4197
299.66 K, x1 = 0.063	1.4162
299.66 K, x1 = 0.184	1.4196
299.7 K, x1 = 0.067	1.4163
299.7 K, x1 = 0.181	1.4195
299.74 K, x1 = 0.067	1.4163
299.74 K, x1 = 0.178	1.4194
299.79 K, x1 = 0.071	1.4164
299.79 K, x1 = 0.175	1.4193
299.83 K, x1 = 0.075	1.4165
299.83 K, x1 = 0.175	1.4193
299.86 K, x1 = 0.075	1.4165
299.86 K, x1 = 0.172	1.4192
299.9 K, x1 = 0.079	1.4166
299.9 K, x1 = 0.169	1.4191
299.95 K, x1 = 0.083	1.4167
299.95 K, x1 = 0.165	1.419
299.97 K, x1 = 0.084	1.4167
299.97 K, x1 = 0.158	1.4188
299.99 K, x1 = 0.087	1.4168
299.99 K, x1 = 0.155	1.4187
300 K, x1 = 0.091	1.4169
300 K, x1 = 0.155	1.4187
300.02 K, x1 = 0.091	1.4169
300.02 K, x1 = 0.148	1.4185
300.03 K, x1 = 0.095	1.417
300.03 K, x1 = 0.148	1.4185
300.04 K, x1 = 0.098	1.4171
300.04 K, x1 = 0.144	1.4184
300.05 K, x1 = 0.102	1.4172
300.05 K, x1 = 0.141	1.4183
300.06 K, x1 = 0.102	1.4172
300.06 K, x1 = 0.105	1.4173
300.06 K, x1 = 0.109	1.4174
300.06 K, x1 = 0.134	1.4181
300.06 K, x1 = 0.137	1.4182
300.06 K, x1 = 0.141	1.4183
300.67 K, x1 = 1	1.4309
301.31 K, x1 = 0.1	1.4166
302.86 K, x1 = 0.1	1.416
302.95 K, x1 = 1	1.4303
303.16 K, x1 = 0.2	1.4188
304.31 K, x1 = 0.2	1.4183
304.45 K, x1 = 0.1	1.4155
304.54 K, x1 = 0.4	1.4225
304.54 K, x1 = 0.497	1.4239
304.6 K, x1 = 1	1.4298
305 K, x1 = 0.3	1.4202
305.51 K, x1 = 0.2	1.4179
305.52 K, x1 = 0.6	1.4251
305.52 K, x1 = 0.699	1.4263
305.69 K, x1 = 0.497	1.4236
305.73 K, x1 = 0.4	1.4221
305.93 K, x1 = 0.3	1.4199
306.12 K, x1 = 0.1	1.4148
306.24 K, x1 = 1	1.4293
306.66 K, x1 = 0.2	1.4175
306.68 K, x1 = 0.699	1.426
307.04 K, x1 = 0.6	1.4247
307.07 K, x1 = 0.3	1.4196
307.1 K, x1 = 0.891	1.428
307.23 K, x1 = 0.4	1.4216
307.73 K, x1 = 0.497	1.4229
307.83 K, x1 = 0.1	1.4142
307.92 K, x1 = 0.2	1.417
308.25 K, x1 = 0.699	1.4255
308.37 K, x1 = 0.798	1.4267
308.59 K, x1 = 0.6	1.4242
308.7 K, x1 = 0.3	1.419
308.74 K, x1 = 0.4	1.4211
308.75 K, x1 = 0.891	1.4276
309.13 K, x1 = 0.497	1.4225
309.18 K, x1 = 0.1	1.4137
309.19 K, x1 = 0.2	1.4165
309.66 K, x1 = 0.798	1.4264
309.72 K, x1 = 0.699	1.4251
310.02 K, x1 = 0.6	1.4237
310.19 K, x1 = 0.891	1.4272
310.59 K, x1 = 0.3	1.4184
310.6 K, x1 = 0.4	1.4204
310.63 K, x1 = 0.798	1.4261
310.77 K, x1 = 0.497	1.422
311.29 K, x1 = 0.699	1.4246
311.31 K, x1 = 0.891	1.4268
311.64 K, x1 = 0.6	1.4233
312.14 K, x1 = 0.3	1.4179
312.14 K, x1 = 0.4	1.4199
312.15 K, x1 = 0.798	1.4257
312.81 K, x1 = 0.699	1.4242
312.9 K, x1 = 0.497	1.4214
312.9 K, x1 = 0.6	1.4229
313.38 K, x1 = 0.891	1.4263
313.81 K, x1 = 0.798	1.4253
315.28 K, x1 = 0.798	1.4248
315.28 K, x1 = 0.891	1.4258
